Experimental data published in patent publication US20250387375A1, “SOFALCONE DERIVATIVES AND MEDICAL USE THEREOF” (KAOHSIUNG MEDICAL UNIVERSITY, priority 2024, published 2025).

Experiments:
[1] = test system: human platelet suspension (platelet aggregation caused by TxA2 agonist U46619); assay: Platelet aggregation reaction test, U46619-induced; type: cell-based
Procedure: (§1) Blood samples were collected from healthy donors, and acid-citrate-dextrose (ACD) solution was used as an anticoagulant. The blood samples were centrifuged to obtain platelets, and residual plasma was removed by washing to prepare platelet suspension.
(§2) In the experimental method, a platelet aggregometer (Chrono-Log Co., Havertown, PA, USA) was used for tests. The compound to be tested was added to the platelet suspension and reacted for 3 minutes at 37° C. with stirring (1200 rpm). Then, platelet stimulator U46619 or collagen was added to initiate platelet aggregation, and the test time was 5 minutes. The principle of the platelet aggregation test was: when platelets were stimulated to induce aggregation reaction, the light transmission of the platelet suspension would increase; by calculating changes in light transmission of the platelet suspension before and after being stimulated, the percentage of platelet aggregation could be obtained.

[2] = test system: human platelet suspension (platelet aggregation caused by collagen); assay: Platelet aggregation reaction test, collagen-induced; type: cell-based; settings: read-out: Collagen IC 50
Procedure: as §1, §2

IC50 [1] [µM] | IC50 [2] [µM] | SMILES
4.45 | 6.28 | CC(C)=CCCC(C)=CCOc1ccc(C(=O)C=Cc2ccc(OCC=C(C)C)cc2)c(OCCCC(=O)O)c1 [Compound 5]
3.66 | 44.4 | CC(C)=CCCC(C)=CCOc1ccc(C=CC(=O)c2ccc(OCC=C(C)CCC=C(C)C)cc2OCCCC(=O)O)cc1 [Compound 6]
2.78 | 4.24 | CCOC(=O)CCCOc1ccccc1C(=O)C=Cc1ccc(OCC=C(C)CCC=C(C)C)cc1 [Compound 8]
5.24 | 52.5 | CC(C)=CCCC(C)=CCOc1ccc(C=CC(=O)c2ccc(F)cc2OCCCC(=O)O)cc1 [Compound 10]
0.05 | 0.35 | CC(C)=CCOc1ccc(C(=O)/C=C/c2ccc(F)cc2)c(OCCCC(=O)O)c1 [Compound 15]
> 100 | 96.2 | COc1ccc(/C=C/C(=O)c2ccc(OC)cc2OCC(=O)O)cc1 [Compound 18]
20.3 | 15.2 | CC(C)=CCOc1ccc(C(=O)/C=C/c2ccccc2OCC=C(C)C)c(OCC(=O)O)c1 [Compound 19]
14.4 | 29.7 | CC(C)=CCOc1ccc(C(=O)/C=C/c2ccc(OCC=C(C)C)c(OCC=C(C)C)c2)c(OCC(=O)O)c1 [Compound 21]
43.8 | 49.2 | CC(C)=CCOc1ccc(C(=O)/C=C/c2ccc([N+](=O)[O-])cc2)c(OCC(=O)O)c1 [Compound 25]
1.8 | 4.22 | O=C(O)COc1ccccc1C(=O)/C=C/c1ccc(F)cc1 [Compound 28]
1.56 | 7.88 | O=C(O)COc1cc(F)ccc1C(=O)/C=C/c1ccccc1 [Compound 29]
4.4 | 7.1 | O=C(O)COc1cc(F)ccc1C(=O)C=Cc1ccccc1 [Compound 31]
5.85 | 12.8 | CC(C)=CCOc1ccc(C=CC(=O)c2ccc(OCC=C(C)C)cc2OCCCCCC(=O)O)cc1 [Compound 32]
2.15 | 12.2 | O=C(O)COc1cc(F)ccc1C(=O)C=Cc1ccc(F)cc1 [Compound 33]
6.58 | 7.91 | O=C(O)COc1ccccc1C(=O)C=Cc1ccccc1 [Compound 35]
0.23 | 1.58 | CC(C)=CCOc1ccc(C=CC(=O)c2ccc(OCC=C(C)C)cc2OCCCCC(=O)O)cc1 [Compound 37]
25.9 | 10.3 | CCOC(=O)COc1cc(O)ccc1C(=O)C=Cc1cccc(O)c1 [Compound 40]

IC50 [1] [µM] | IC50 [2] [µM] | SMILES
34.9 | 15.2 | CCOC(=O)COc1cc(O)ccc1C(=O)C=Cc1ccc(O)c(O)c1 [Compound 41]
38.7 | 1.59 | CCOC(=O)COc1ccccc1C(=O)C=Cc1ccc(O)cc1 [Compound 42]
55.6 | 2.26 | CCOC(=O)COc1cc(O)ccc1C(=O)C=Cc1ccc(F)cc1 [Compound 43]
> 100 | 8.92 | CCOC(=O)COc1cc(O)ccc1C(=O)C=Cc1ccc(Cl)cc1 [Compound 44]
> 20 | > 20 | CCOC(=O)COc1cc(O)ccc1C(=O)C=Cc1ccc([N+](=O)[O-])cc1 [Compound 45]
64 | 5.08 | CCOC(=O)COc1ccccc1C(=O)C=Cc1ccc(N)cc1 [Compound 46]
35.2 | 16.4 | CCOC(=O)COc1ccccc1C(=O)C=Cc1ccc(O)cc1 [Compound 47]
0.5 | 4.85 | O=C(O)CCCCCOc1ccccc1C(=O)CCc1ccccc1 [Compound 49]
50.4 | 44.4 | O=C(O)CCCCCOc1ccccc1C(=O)C=Cc1ccccn1 [Compound 53]
5.45 | 22.1 | O=C(O)CCCCCOc1ccccc1C(=O)C=Cc1cccnc1 [Compound 54]
5.37 | 4.4 | CC(C)=CCOc1ccc(C(=O)C=Cc2cccs2)c(OCCCCCC(=O)O)c1 [Compound 55]
29.3 | 39.8 | O=C(O)COc1ccccc1C(=O)C=Cc1cccnc1 [Compound 60]
0.48 | 0.58 | CCOC(=O)CCCCCOc1ccccc1C(=O)C=Cc1ccco1 [Compound 62]
4.57 | 6.05 | CCOC(=O)CCCCCOc1ccccc1C(=O)C=Cc1ccccn1 [Compound 63]
78.4 | 3.13 | CCOC(=O)COc1ccccc1C(=O)C=Cc1ccco1 [Compound 65]
27.8 | 3.42 | COC(=O)COc1cc(O)ccc1C(=O)C=Cc1ccc(O)cc1 [Compound 69]

Continued, compound first:

SMILES | IC50 [1] [µM] | IC50 [2] [µM]
O=C(O)CCCCCOc1ccccc1C(=O)/C=C/c1ccccc1F [Compound 1] | 0.51 | 0.07
O=C(O)CCCCCOc1ccccc1C(=O)/C=C/c1cccc(F)c1 [Compound 2] | 0.05 | 0.05
CC(C)=CCCC(C)=CCOc1ccc(C=CC(=O)c2ccc(OCC=C(C)CCC=C(C)C)cc2OCCCC(=O)O)cc1 [Compound 4] | 0.05 | 0.06
CC(C)=CCCC(C)=CCOc1ccc(C(=O)C=Cc2ccccc2)c(OCCCC(=O)O)c1 [Compound 7] | 0.49 | 4.03
CC(C)=CCOc1ccc(/C=C/C(=O)c2ccc(F)cc2OCCCC(=O)O)cc1 [Compound 9] | 5.44 | 5.14
O=C(O)CCCCCOc1cc(F)ccc1C(=O)/C=C/c1ccccc1 [Compound 11] | 54.4 | 5.38
O=C(O)CCCCCOc1cc(F)ccc1C(=O)/C=C/c1ccc(F)cc1 [Compound 12] | 0.5 | 0.43
CC(C)=CCOc1ccc(C(=O)/C=C/c2ccccc2F)c(OCCCC(=O)O)c1 [Compound 13] | 0.51 | 0.65
CC(C)=CCOc1ccc(C(=O)/C=C/c2cccc(F)c2)c(OCCCC(=O)O)c1 [Compound 14] | 5.18 | 7.05
O=C(O)CCCCCOc1cc(F)ccc1C(=O)/C=C/c1ccc(F)cc1 [Compound 16] | 0.37 | 0.62
CC(C)=CCOc1cccc(/C=C/C(=O)c2ccc(OCC=C(C)C)cc2OCC(=O)O)c1 [Compound 20] | 20.6 | 28.3
CC(C)=CCOc1ccc(C(=O)/C=C/c2ccccc2)c(OCC(=O)O)c1 [Compound 22] | 43.2 | 12.8
CC(C)=CCOc1ccc(C(=O)/C=C/c2ccc(F)cc2)c(OCC(=O)O)c1 [Compound 23] | 22.2 | 33.5
CC(C)=CCOc1ccc(C(=O)/C=C/c2ccc(Cl)cc2)c(OCC(=O)O)c1 [Compound 24] | 43.4 | 67.6
CC(=O)Nc1ccc(/C=C/C(=O)c2ccc(OCC=C(C)C)cc2OCC(=O)O)cc1 [Compound 26] | 15.7 | 40.8
CC(C)=CCOc1ccc(/C=C/C(=O)c2ccccc2OCC(=O)O)cc1 [Compound 27] | 5.07 | 18.8
O=C(O)CCCOc1ccccc1C(=O)C=Cc1ccccc1 [Compound 34] | 9.5 | 6.4
O=C(O)CCCCCOc1ccccc1C(=O)C=Cc1ccccc1 [Compound 36] | 0.19 | 0.13
CCOC(=O)CCCCCOc1ccccc1C(=O)C=Cc1ccccc1F [Compound 38] | 0.03 | 0.07

SMILES | IC50 [1] [µM] | IC50 [2] [µM]
CCOC(=O)CCCCCOc1ccccc1C(=O)C=Cc1cccc(F)c1 [Compound 39] | 0.05 | 0.07
CCOC(=O)COc1cc(OC)ccc1C(=O)C=Cc1ccc(OC)cc1 [Compound 48] | > 100 | > 100
O=C(O)CCCCCOc1ccccc1C(=O)CCc1cccc(F)c1 [Compound 50] | 0.57 | 0.33
O=C(O)CCCCCOc1ccccc1C(=O)C=Cc1cccs1 [Compound 51] | 0.57 | 0.62
O=C(O)CCCCCOc1ccccc1C(=O)C=Cc1ccco1 [Compound 52] | 0.5 | 0.56
O=C(O)COc1ccccc1C(=O)C=Cc1ccco1 [Compound 56] | 72.2 | 38.3
O=C(O)COc1ccccc1C(=O)C=Cc1cccs1 [Compound 57] | 71.5 | 15.5
O=C(O)COc1ccccc1C(=O)C=Cc1ccc(Br)s1 [Compound 58] | 72.6 | 40.9
O=C(O)COc1ccccc1C(=O)C=Cc1ccccn1 [Compound 59] | 72.1 | 33.8
CCOC(=O)CCCCCOc1ccccc1C(=O)C=Cc1cccs1 [Compound 61] | 0.54 | 0.56
CCOC(=O)CCCOc1cc(OCC=C(C)C)ccc1C(=O)C=Cc1cccs1 [Compound 64] | 5.87 | 3.85
CCOC(=O)COc1ccccc1C(=O)C=Cc1cccs1 [Compound 66] | 70.2 | 2.86
CCOC(=O)COc1ccccc1C(=O)C=Cc1ccc(Br)s1 [Compound 67] | > 100 | 5.35
COC(=O)COc1cc(OCC=C(C)C)ccc1C(=O)C=Cc1ccc(OCC=C(C)C)cc1 [Compound 68] | > 100 | > 100
O=C(O)CCCOc1cc(O)ccc1C(=O)C=Cc1ccc(O)cc1 [Compound 70] | 5.43 | 6.55
O=C(O)COc1cc(O)ccc1C(=O)C=Cc1ccc(O)cc1 [Compound 71] | 65.4 | > 100
COC(=O)COc1cc(O)ccc1C(=O)CCc1ccc(O)cc1 [Compound 72] | 47.6 | 11.6
COC(=O)CCCOc1cc(OCC=C(C)C)ccc1C(=O)CCc1ccc(OCC=C(C)C)cc1 [Compound 73] | 10.7 | 62.9
